Measured values: patent US20140066449A1, “DIPYRIDINIUM DERIVATIVES” (SABREPHARM LIMITED, priority 2011, published 2014)
Several values for one entry are separate records, joined by “and”; a condition that tells them apart may be missing. Equal values may be shown once. Read-outs that look alike come from different tables or passages of the source.

Key:
[1] = tested on: human mitochondria isolated from HEK293 cells; assay: ROS production in isolated mitochondria (DCFDA); format: biochemical
Experimental: The ability of test compounds to impact ROS production in isolated mitochondria after 120 mins exposure was assessed.
Mitochondria were isolated from harvested human embryonic kidney (HEK293) cells (20×10^6) using a commercial kit (Thermo Scientific) before re-suspension in PBS to a final volume of 800 μL. […] Independent experiments (each assessing the impact of all four compounds along with a positive [AAPH; 5.0 mM] and vehicle control) were repeated three times.

[2] = tested on: M 14 [melanoma]; assay: Combination with cisplatin, M14; format: cell-based
[3] = tested on: A2780/cis [cisplatin ovarian resistant line]; assay: Combination with cisplatin, A2780/cis; format: cell-based
[4] = tested on: A2780 [ovarian]; assay: Combination with cisplatin, A2780; format: cell-based
[5] = tested on: MCF-7 Human Breastadenocarclnoma Xenograft; assay: MCF-7 xenograft model study; format: in vivo, mice
Excerpt: Evaluation of the Efficacy of the Compounds C & D (Examples 2 & 3 Respectively) in the MCF-7 Human Breastadenocarclnoma Xenograft Model

[6] = tested on: HT-29 colon adenocarcinoma; assay: MTT in vitro cytotoxicity, HT-29; format: cell-based
Experimental: (§1) All were stored in the dark at 4° C. An accurately weighed amount of each compound was dissolved in DMSO and Hank's Balanced Salt Solution (Sigma) according to Table 2 below:
(§2) Further dilutions were made in complete RPMI1640 cell culture medium (RPMI1640 cell culture medium supplemented with 10% foetal bovine serum, 1 mM L-glutamine, and 2 mM sodium pyruvate (all from Sigma)).
(§3) H460 non-small cell lung adenocarcinoma, HT-29 colon adenocarcinoma and MCF-7 breast adenocarcinoma (ECACC, Salisbury, Wiltshire) were used for analysis. Cells were cultured in complete RPMI1640 cell culture medium, and maintained as monolayer cultures at 37° C. in a humidified 5% CO2 environment.
(§4) Tumour cell growth inhibition was assessed using the MTT assay with a standard 96 hour plus an extended 10 day incubation. For the 96 hour assay 1×10^4 cells were inoculated into each well of a 96-well plate and incubated overnight at 37° C. in a humidified atmosphere containing 5% CO2 to give time to adhere to the wells and form a monolayer. For the 10 day incubation, 1×102 (H460 and HT-29) and 1×103 (MCF-7) cells were inoculated. The next day, culture medium was removed from each well and replaced with cell culture media for the untreated control, or media containing compound, and the plates then incubated for a further 96 hours or 10 days. […] After 96 hours or 10 days culture medium was removed and 200 μL of 0.5 mgmL-1 MTT solution (Sigma) in complete medium added to each well. Following a further 4 hours incubation, the solution was removed from each well and 150 μL of DMSO added to solubilise the formazan crystals resulting from MTT conversion. Absorbance values for the resulting solutions were read at 550 nm on a Multiskan Ex microplate reader (Thermo Fisher, Loughborough, UK) and cell survival calculated as the absorbance of treated cells divided by the control. Results are expressed in terms of IC50 values (i.e. concentration of compound required to kill 50% of cells), which were determined manually in Microsoft Excel from plots of concentration versus percentage cell survival, and all experiments were performed in triplicate.

[7] = tested on: H460 non-small cell lung adenocarcinoma; assay: MTT in vitro cytotoxicity, H460; format: cell-based
Experimental: as §1, §2, §3, §4

[8] = tested on: MCF7 [Breast]; assay: Combination with cisplatin, MCF-7; format: cell-based, human
[9] = tested on: MCF-7 breast adenocarcinoma; assay: MTT in vitro cytotoxicity, MCF-7; format: cell-based, human
Experimental: as §1, §2, §3, §4

[10] = Redox potential study, square wave voltammetry; format: physicochemical; conditions: 0.1 mol dm-3 LiNTf2, 20° C., first scan
Experimental: BioAnalytical Systems CV50W potentiostat (from BAS Inc., USA)
Square wave voltammetry (4 mV step, 25 mV pulse, 10 Hz SW frequency)
3 mm diameter glassy carbon working electrode (from BAS)
3 mm diameter glassy carbon counter electrode (from BAS)
Saturated calomel reference electrode (SCE, from Sycopel Scientific Ltd., UK)
0.1 mol dm-3 lithium bis(trifluoromethanesulphonyl)imide ((LiNTf2)CAS 90076-65-6, from 3M)
Voltammograms were recorded from 0.5 V to −1.2 V in deoxygenated solutions of the Compounds.

[11] = cisplatin 1 μM alone (compound 0 μM)
[12] = cisplatin 3 μM alone (compound 0 μM)
[13] = cisplatin 10 μM alone (compound 0 μM)
[14] = compound 1 μM + cisplatin 10 μM
[15] = compound 3 μM + cisplatin 10 μM
[16] = compound 10 μM + cisplatin 1 μM
[17] = compound 10 μM + cisplatin 3 μM
[18] = compound 10 μM + cisplatin 10 μM

## 3-(((2-(2-methoxyethoxy)(ethoxy)n)ethyl) hexane-1,6-diyldicarbamate)methyl)-6,7-dihydrodipyrido[1,2-a:2′,1′-c]pyrazine-5,8-diium bistrifluoromethanesulfonate [G]
[1]; isolated HEK293 mitochondria, 100 μM, 120 mins
  rank order of efficacy (ROS production): F>G>B>A
[1]; isolated HEK293 mitochondria, 100 μM, 120 mins, room temperature
  ROS production relative to vehicle treatment: robustly increased ROS production

## N.N.[Cl][Pt][Cl] [Cisplatin]
[2]; [11]
  % cell survival: 85.6% and 97.7%
[2]; [12]
  % cell survival: 77.1% and 84.8%
[2]; [13]
  % cell survival: 58.3% and 63.3%
[3]; [13]
  % cell survival: 36.3% and 39.7%
[3]; cisplatin 30 μM alone (compound 0 μM)
  % cell survival: 8.7% and 8.6%
[3]; cisplatin 100 μM alone (compound 0 μM)
  % cell survival: −0.5% and 1.1%
[4]; [11]
  % cell survival: 49.5% and 52.5%
[4]; [12]
  % cell survival: 19.6% and 19.2%
[4]; [13]
  % cell survival: 4.8% and 5.8%
[5]; 10 mg/kg, i.p., d 0
  Growth delay: 5.1 days
  Maximum % weight loss: 8.0%
[5]; xenograft studies, FIG. 6
  weight loss of tumour bearing mice: significant weight loss
[6]; HT-29, 10 day exposure, highest concentration 30 μM, read-out: IC50 Run 1
  IC50: 2.4 µM
[6]; HT-29, 10 day exposure, highest concentration 100 μM, read-out: IC50 Run 2
  IC50: 1.3 µM
[6]; HT-29, 10 day exposure, highest concentration 100 μM, read-out: IC50 Run 3
  IC50: 0.7 µM
[6]; HT-29, 10 day exposure, mean of runs, read-out: IC50 Mean
  IC50: 1.5 µM
[7]; H460, 10 day exposure, highest concentration 30 μM, read-out: IC50 Run 1
  IC50: 1.1 µM
[7]; H460, 10 day exposure, highest concentration 100 μM, read-out: IC50 Run 2
  IC50: 1 µM
[7]; H460, 10 day exposure, highest concentration 100 μM, read-out: IC50 Run 3
  IC50: 0.9 µM
[7]; H460, 10 day exposure, mean of runs, read-out: IC50 Mean
  IC50: 1 µM
[8]; cisplatin 0.1 μM alone (compound 0 μM)
  % cell survival: 107.4% and 110.8%
[8]; cisplatin 0.3 μM alone (compound 0 μM)
  % cell survival: 76% and 91.3%
[8]; [11]
  % cell survival: 72.4% and 70.3%
[9]; MCF-7, 10 day exposure, highest concentration 30 μM, read-out: IC50 Run 1
  IC50: 2.3 µM
[9]; MCF-7, 10 day exposure, highest concentration 100 μM, read-out: IC50 Run 2
  IC50: 2.3 µM
[9]; MCF-7, 10 day exposure, highest concentration 100 μM, read-out: IC50 Run 3
  IC50: 2.5 µM
[9]; MCF-7, 10 day exposure, mean of runs, read-out: IC50 Mean
  IC50: 2.4 µM

## O=S(=O)([O-])C(F)(F)F.O=S(=O)([O-])C(F)(F)F.c1cc[n+]2c(c1)-c1cccc[n+]1CC2 [Compound A, 6,7-dihydrodipyrido[1,2-a:2′,1′-c]pyrazine-5,8-diium bistrifluoromethanesulfonate]
[10]
  Reduction potential 1: −0.444 V vs. SCE
  Reduction potential 2: −0.944 V vs. SCE
[2]; compound 1 μM + cisplatin 1 μM
  % cell survival: 83.1%
[2]; compound 1 μM + cisplatin 3 μM
  % cell survival: 71.3%
[2]; [14]
  % cell survival: 57.9%
[2]; compound 1 μM, cisplatin 0 μM
  % cell survival: 87%
[2]; compound 3 μM + cisplatin 1 μM
  % cell survival: 75.8%
[2]; compound 3 μM + cisplatin 3 μM
  % cell survival: 68%
[2]; [15]
  % cell survival: 55.4%
[2]; compound 3 μM, cisplatin 0 μM
  % cell survival: 80%
[2]; [16]
  % cell survival: 49%
[2]; [17]
  % cell survival: 44.4%
[2]; [18]
  % cell survival: 36.4%
[2]; compound 10 μM, cisplatin 0 μM
  % cell survival: 56.5%
[3]; [14]
  % cell survival: 51.4%
[3]; compound 1 μM + cisplatin 30 μM
  % cell survival: 10%
[3]; compound 1 μM + cisplatin 100 μM
  % cell survival: −1.6%
[3]; compound 1 μM, cisplatin 0 μM
  % cell survival: 77.8%
[3]; [15]
  % cell survival: 31.9%
[3]; compound 3 μM + cisplatin 30 μM
  % cell survival: 10.2%
[3]; compound 3 μM + cisplatin 100 μM
  % cell survival: 1.9%
[3]; compound 3 μM, cisplatin 0 μM
  % cell survival: 48.7%
[3]; [18]
  % cell survival: 16.6%
[3]; compound 10 μM + cisplatin 30 μM
  % cell survival: 6%
[3]; compound 10 μM + cisplatin 100 μM
  % cell survival: 1.8%
[3]; compound 10 μM, cisplatin 0 μM
  % cell survival: 29.4%
[4]; compound 1 μM + cisplatin 1 μM
  % cell survival: 58%
[4]; compound 1 μM + cisplatin 3 μM
  % cell survival: 24.5%
[4]; [14]
  % cell survival: 5.2%
[4]; compound 1 μM, cisplatin 0 μM
  % cell survival: 90.5%
[4]; compound 3 μM + cisplatin 1 μM
  % cell survival: 54.4%
[4]; compound 3 μM + cisplatin 3 μM
  % cell survival: 22.3%
[4]; [15]
  % cell survival: 5.3%
[4]; compound 3 μM, cisplatin 0 μM
  % cell survival: 86.3%
[4]; [16]
  % cell survival: 40.6%
[4]; [17]
  % cell survival: 19%
[4]; [18]
  % cell survival: 5.2%
[4]; compound 10 μM, cisplatin 0 μM
  % cell survival: 66%
[6]; Homo sapiens, HT-29, 240 h, read-out: IC50 Mean
  IC50: 1.5 µM
[6]; Homo sapiens, HT-29, 240 h, read-out: IC50 Run 1
  IC50: 1.8 µM
[6]; Homo sapiens, HT-29, 240 h, read-out: IC50 Run 2
  IC50: 0.9 µM
[6]; Homo sapiens, HT-29, 240 h, read-out: IC50 Run 3
  IC50: 1.7 µM
[1]
  ROS production relative to vehicle treatment: barely above vehicle levels
  rank order of efficacy (ROS production): F>G>B>A
[7]; Homo sapiens, NCI-H460, 240 h, read-out: IC50 Mean
  IC50: 5.4 µM
[7]; Homo sapiens, NCI-H460, 240 h, read-out: IC50 Run 1
  IC50: 5.2 µM
[7]; Homo sapiens, NCI-H460, 240 h, read-out: IC50 Run 2
  IC50: 5.5 µM
[7]; Homo sapiens, NCI-H460, 240 h, read-out: IC50 Run 3
  IC50: 5.4 µM
[8]; compound 1 μM + cisplatin 0.1 μM
  % cell survival: 96.4%
[8]; compound 1 μM + cisplatin 0.3 μM
  % cell survival: 69.4%
[8]; compound 1 μM + cisplatin 1 μM
  % cell survival: 62%
[8]; compound 1 μM, cisplatin 0 μM
  % cell survival: 109%
[8]; compound 3 μM + cisplatin 0.1 μM
  % cell survival: 80.9%
[8]; compound 3 μM + cisplatin 0.3 μM
  % cell survival: 64.8%
[8]; compound 3 μM + cisplatin 1 μM
  % cell survival: 66.2%
[8]; compound 3 μM, cisplatin 0 μM
  % cell survival: 95.1%
[8]; compound 10 μM + cisplatin 0.1 μM
  % cell survival: 52.8%
[8]; compound 10 μM + cisplatin 0.3 μM
  % cell survival: 39.6%
[8]; [16]
  % cell survival: 32.6%
[8]; compound 10 μM, cisplatin 0 μM
  % cell survival: 52.6%
[9]; Homo sapiens, MCF7, 240 h, read-out: IC50 Mean
  IC50: 5 µM
[9]; Homo sapiens, MCF7, 240 h, read-out: IC50 Run 1
  IC50: 2.7 µM
[9]; Homo sapiens, MCF7, 240 h, read-out: IC50 Run 2
  IC50: 5.4 µM
[9]; Homo sapiens, MCF7, 240 h, read-out: IC50 Run 3
  IC50: 6.8 µM
